Measured values reported in patent US20110166078A1, “OLIGOSACCHARIDE COMPOUNDS FOR USE IN MOBILISING STEM CELLS” (ENDOTIS PHARMA, priority 2008, published 2011).

Assays:
SDF-1α = SDF-1α (Homo sapiens, UniProt P48061); assay: SDF-1α/heparin competition assay by SPR (Biacore); assay type: binding; settings: 96 nM SDF-1α, biotinylated low molecular weight heparin (6 kDa), Sensorchip SA
Method: (§1) Heparin or low molecular weight heparin (6 kDa) from SIGMA were biotinylated at the reducing end and immobilized on a Biacore sensorchip. Different concentrations of the compounds of the present invention were co-incubated at a fixed concentration of targets: FGF-2, PDGF-β, VEGF-A or SDF-1α for 30 minutes. The mixture was then injected onto the streptavidin control (control reference) and HP surfaces. Only free growth factor (GF) or chemokine, i.e. the target molecules not bound to compounds of the present invention, were trapped on the heparin surface. From the binding of free targets on heparin, the percentages of inhibition were calculated and then reported in function of compound concentrations. The plot was fitted with a four-parameter model and IC50 was calculated. The 0% inhibition value was obtained for the injection of the studied target in running-buffer, and the 100% inhibition value was obtained for the injection of the studied target co-incubated with 10 μM of low molecular weight heparin 6 kDa.
A SDF-1α/heparin competition assay using the Biacore technology was performed using the following conditions: 96 nM SDF-1α, biotinylated low molecular weight heparin (6 kDa), Reference Streptavidin, Sensorchip SA, HBS-P, Regeneration NaCl 2M
(§2) IC50 values of compounds of the present invention were determined using the Biacore technology for the growth factor and chemokine/heparin competition assays that contained the following proteins: VEGF-A, SDF-1α, FGF-2 and PDGF-β.

VEGF-A = target: T1, VEGF-A (Homo sapiens, UniProt P15692); assay: VEGF-A/heparin competition assay by SPR (Biacore); assay type: binding; settings: 10 nM VEGF-A, biotinylated low molecular weight heparin, Sensorchip SA
T1 sequence (P15692 27-191 isoform P15692-4): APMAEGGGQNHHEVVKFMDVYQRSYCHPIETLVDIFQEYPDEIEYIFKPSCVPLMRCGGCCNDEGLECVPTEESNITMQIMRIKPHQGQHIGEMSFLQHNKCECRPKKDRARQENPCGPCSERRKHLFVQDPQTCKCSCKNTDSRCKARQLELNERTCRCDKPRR
Method: as §1
A VEGF-A/heparin competition assay using the Biacore technology was performed using the following conditions: 10 nM VEGF-A, biotinylated low molecular weight heparin, Reference Streptavidin, Sensorchip SA, HBS-P, Regeneration NaCl 2M.
as §2

PDGF-β = PDGF-β (Homo sapiens, UniProt P01127); assay: PDGF-β/heparin competition assay by SPR (Biacore); assay type: binding; settings: 10 nM PDGF-β, biotinylated heparin, Sensorchip C1
Method: as §1, with “kDa. A PDGF-β/heparin competition assay using the Biacore technology was performed using the following conditions: 10 nM PDGF-β, biotinylated heparin, Reference Streptavidin, Sensorchip C1, HBS-P, Regeneration NaCl 2M. IC50 values of compounds of the present invention were determined using the Biacore technology for the growth factor and chemokine/heparin competition assays that contained the following proteins: VEGF-A, SDF-1α, FGF-2 and PDGF-β.” for “kDa.”

heparanase = target: T2, heparanase (Homo sapiens, UniProt Q9Y251); assay: Anti-heparanase activity (fondaparinux degradation / factor Xa chromogenic assay); assay type: biochemical
T2 sequence (Q9Y251 158-543 limits assumed): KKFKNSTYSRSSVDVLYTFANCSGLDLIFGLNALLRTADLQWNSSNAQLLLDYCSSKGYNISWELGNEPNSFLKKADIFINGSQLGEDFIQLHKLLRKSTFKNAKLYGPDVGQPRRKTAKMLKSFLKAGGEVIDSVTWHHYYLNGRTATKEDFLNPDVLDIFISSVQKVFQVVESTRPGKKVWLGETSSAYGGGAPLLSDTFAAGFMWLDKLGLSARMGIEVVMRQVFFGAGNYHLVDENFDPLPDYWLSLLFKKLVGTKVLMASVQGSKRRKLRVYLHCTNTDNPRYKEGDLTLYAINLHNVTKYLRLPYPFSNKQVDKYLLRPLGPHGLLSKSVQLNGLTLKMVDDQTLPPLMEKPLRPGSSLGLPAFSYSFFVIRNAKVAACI
T2 sequence (Q9Y251 36-109 limits assumed): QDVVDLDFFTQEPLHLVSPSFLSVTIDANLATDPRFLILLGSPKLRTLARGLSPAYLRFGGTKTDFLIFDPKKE
Method: To determine the compounds IC50 values for the heparanase target, we adapted an assay based on the ability of heparanase to degrade fondaparinux (Sanofi patent No. 287 3377 FR), and the capacity of fondaparinux to inhibit factor Xa activity via AT III binding. This assay was carried out on a STA Compact robot (Diagnostica Stago). Briefly, different concentrations of compounds were added to a mixture containing the heparanase enzyme and fondaparinux and after a time-fixed incubation period, AT III, Factor Xa and a chromogenic substrate (CBS 31.39) were sequentially added to the reaction mix. Production of paranitroanilin resulting from the degradation of the chromogenic substrate CBS 31.39 was monitored at 405 nm. Data obtained for the different concentration points were plotted using a four-parameter fit model and IC50 determined.

IC50 (SDF-1α) [µM]	IC50 (VEGF-A) [µM]	IC50 (PDGF-β) [µM]	IC50 (heparanase) [µM]	SMILES
0.043	0.0052	0.085	0.0092	C#CCCCOC1OC(COS(=O)(=O)[O-])C(OC2OC(C(=O)[O-])C(OC3OC(COS(=O)(=O)[O-])C(OC4OC(C(=O)[O-])C(OC5OC(COS(=O)(=O)[O-])C(OC6OC(C(=O)[O-])C(OCc7ccccc7)C(OCc7ccccc7)C6OS(=O)(=O)[O-])C(OCc6ccccc6)C5NS(=O)(=O)[O-])C(OCc5ccccc5)C4OS(=O)(=O)[O-])C(OCc4ccccc4)C3NS(=O)(=O)[O-])C(OCc3ccccc3)C2OS(=O)(=O)[O-])C(OCc2ccccc2)C1NS(=O)(=O)[O-].[Na+].[Na+].[Na+].[Na+].[Na+].[Na+].[Na+].[Na+].[Na+].[Na+].[Na+].[Na+] (centres unmarked) [Compound 239]
0.023	0.0048	0.0109	0.00042	C#CCCCOC1OC(COS(=O)(=O)[O-])C(OC2OC(C(=O)[O-])C(OC3OC(COS(=O)(=O)[O-])C(OC4OC(C(=O)[O-])C(OC5OC(COS(=O)(=O)[O-])C(OC6OC(C(=O)[O-])C(OC7OC(COS(=O)(=O)[O-])C(OC8OC(C(=O)[O-])C(OCc9ccccc9)C(OCc9ccccc9)C8OS(=O)(=O)[O-])C(OCc8ccccc8)C7NS(=O)(=O)[O-])C(OCc7ccccc7)C6OS(=O)(=O)[O-])C(OCc6ccccc6)C5NS(=O)(=O)[O-])C(OCc5ccccc5)C4OS(=O)(=O)[O-])C(OCc4ccccc4)C3NS(=O)(=O)[O-])C(OCc3ccccc3)C2OS(=O)(=O)[O-])C(OCc2ccccc2)C1NS(=O)(=O)[O-].[Na+].[Na+].[Na+].[Na+].[Na+].[Na+].[Na+].[Na+].[Na+].[Na+].[Na+].[Na+].[Na+].[Na+].[Na+].[Na+] (centres unmarked) [Compound 240]
